Test results: patent US11014895B2, “Heterocyclic urea compound, and drug composition and application thereof” (CHINA PHARMACEUTICAL UNIVERSITY, priority 2017, dated 2021)

Experiments:
IDO1 enzyme = IDO1 enzyme (Homo sapiens, UniProt P14902); assay: Determination of biochemical activity of IDO1 enzyme (absorbance at 320 nm); details: room temperature, 3 hours
Method in brief: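 Enzyme and compound were reacted in sodium hydrogen phosphate buffer (pH 7-8) for 3 hours at room temperature. Absorbance at 320 nm gave inhibition rate, and IC50 was calculated from it.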

[1] = biological target: T1, IDO1 enzyme in the Hela cell (Homo sapiens, UniProt P14902); assay: Cell activity: interferon γ-stimulated Hela cells, absorbance of supernatant at 480 nm; format: cell-based; details: interferon γ 100 ng/ml, 72 hours
T1 construct: endogenous in cells; host or cells: HeLa cells stimulated with interferon γ (100 ng/ml)
Method in brief: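 HeLa cells treated with compound plus interferon γ (100 ng/ml final) and cultured 72 h at 37 °C. Supernatant treated with trichloroacetic acid 30 min at 50 °C, centrifuged, then mixed with 2% dimethylaminobenzaldehyde in acetic acid; absorbance read at 480 nm.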

T1 sequence (P14902 whole entry): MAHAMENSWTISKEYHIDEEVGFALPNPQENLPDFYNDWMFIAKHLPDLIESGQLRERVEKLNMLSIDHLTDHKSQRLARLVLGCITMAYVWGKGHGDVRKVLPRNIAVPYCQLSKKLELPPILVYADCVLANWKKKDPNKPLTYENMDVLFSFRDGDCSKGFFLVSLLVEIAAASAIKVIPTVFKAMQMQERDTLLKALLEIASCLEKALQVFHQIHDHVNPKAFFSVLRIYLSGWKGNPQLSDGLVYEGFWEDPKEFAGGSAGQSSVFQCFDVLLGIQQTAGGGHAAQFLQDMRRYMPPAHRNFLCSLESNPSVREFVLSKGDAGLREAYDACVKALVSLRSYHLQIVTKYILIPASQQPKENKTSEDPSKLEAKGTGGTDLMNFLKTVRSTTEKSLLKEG
Chain of IDO1 enzyme (P14902 whole entry): as above

IC50 (IDO1 enzyme) | IC50 [1] | Compound
< 0.001 µM | < 0.001 µM | NCCCNC(=O)Nc1nocc1/C(=N/O)Nc1ccc(F)c(Br)c1 [Embodiment 88, (Z)-1-(4-(N-(3-bromo-4-fluorophenyl)-N′-hydroxyaminoiminomethyl)-isoxazole-3-substituted)-3-(3-propyl)urea]
< 0.001 µM | < 0.001 µM | O=C(NCCO)Nc1nocc1/C(=N/O)Nc1ccc(F)c(Br)c1 [Embodiment 89, (Z)-1-(4-(N-(3-bromo-4-fluorophenyl)-N′-hydroxyaminoiminomethyl)-isoxazole-3-substituted)+3-(2-hydroxyethyl)urea]
< 0.001 µM | < 0.001 µM | NCCNC(=O)Nc1nocc1/C(=N/O)Nc1ccc(F)c(Br)c1 [Embodiment 90, (Z)-1-(4-(N-(3-bromo-4-fluorophenyl)-N′-hydroxyaminoiminomethyl)-isoxazole-3-substituted)+3-(2-aminoethyl)urea]
0.1 to 1 µM | 0.1 to 1 µM | CCCNC(=O)Nc1nocc1/C(=N/O)Nc1ccc(F)c(Br)c1 [Embodiment 91, (Z)-1-(4-(N-(3-bromo-4-fluorophenyl)-N′-hydroxyaminoiminomethyl)-isoxazole-3-substituted)-3-(propyl)urea]
0.1 to 1 µM | 0.1 to 1 µM | O=C(Nc1nocc1/C(=N/O)Nc1ccc(F)c(Br)c1)Nc1cccc2[nH]ccc12 [Embodiment 94, (Z)-1-(4-(N-(3-bromo-4-fluorophenyl)-N′-hydroxyaminoiminomethyl)-isoxazole-3-substituted)-3-(4-aminoindole)urea]

The next lines start with the compound.

Compound | IC50 (IDO1 enzyme) | IC50 [1]
NC1CCC(NC(=O)Nc2nocc2/C(=N/O)Nc2ccc(F)c(Br)c2)CC1 (centres unmarked) [Embodiment 87, (Z)-1-(4-(N-(3-bromo-4-fluorophenyl)-N′-hydroxyaminoiminomethyl)-isoxazole-3-substituted)-3-(4-aminocyclohexyl)urea] | < 0.001 µM | < 0.001 µM
CC(C)NC(=O)Nc1nocc1/C(=N/O)Nc1ccc(F)c(Br)c1 [Embodiment 92, (Z)-1-(4-(N-(3-bromo-4-fluorophenyl)-N′-hydroxyaminoiminomethyl)-isoxazole-3-substituted)-3-(isopropyl)urea] | 0.1 to 1 µM | 0.1 to 1 µM
CS(=O)(=O)NCCNC(=O)Nc1nocc1/C(=N/O)Nc1ccc(F)c(Br)c1 [Embodiment 93, (Z)-1-(4-(N-(3-bromo-4-fluorophenyl)-N′-hydroxyaminoiminomethyl)-isoxazole-3-substituted)-3-(2-methamidoethyl)urea] | < 0.001 µM | < 0.001 µM
O=C(Nc1nocc1/C(=N/O)Nc1ccc(F)c(Br)c1)Nc1c[nH]c2ccccc12 [Embodiment 95, (Z)-1-(4-(N-(3-bromo-4-fluorophenyl)-N′-hydroxyaminoiminomethyl)-isoxazole-3-substituted)-3-(3-aminoindole)urea] | 0.1 to 1 µM | 0.1 to 1 µM
O=C(Nc1cccnc1)Nc1nocc1/C(=N/O)Nc1ccc(F)c(Br)c1 [Embodiment 96, (Z)-1-(4-(N-(3-bromo-4-fluorophenyl)-N′-hydroxyaminoiminomethyl)-isoxazole-3-substituted)-3-(3-aminopyridine)urea] | 0.1 to 1 µM | 0.1 to 1 µM
COc1ccc(NC(=O)Nc2nocc2/C(=N/O)Nc2ccc(F)c(Cl)c2)cc1 [Embodiment 97, (Z)-1-(4-(N-(3-chloro-4-fluorophenyl)-N′-hydroxyaminoiminomethyl)-isoxazole-3-substituted)-3-(4-methoxyphenyl)urea] | 0.1 to 1 µM | 0.1 to 1 µM
O=C(Nc1ccccc1)Nc1nocc1/C(=N/O)Nc1ccc(F)c(Cl)c1 [Embodiment 98, (Z)-1-(4-(N-(3-chloro-4-fluorophenyl)-N′-hydroxyaminoiminomethyl)-isoxazole-3-substituted)-3-(phenyl)urea] | 0.1 to 1 µM | 0.1 to 1 µM
O=C(Nc1nocc1/C(=N/O)Nc1ccc(F)c(Cl)c1)NC1CCCCC1 [Embodiment 99, (Z)-1-(4-(N-(3-chloro-4-fluorophenyl)-N′-hydroxyaminoiminomethyl)-isoxazole-3-substituted)-3-(cyclohexyl)urea] | 0.1 to 1 µM | 0.1 to 1 µM
